Laboratory results from Sander's compilation of Henry's law constants.

Assays:
[1] = Henry solubility constant Hcp at 296 K (mol/(m3 Pa))
[2] = Henry solubility constant Hcp at 295 K (mol/(m3 Pa))
[3] = Henry solubility constant Hcp at 310 K (mol/(m3 Pa)); details: reference: McIntosh and Heffron (2000)
[4] = Henry solubility constant Hcp at 293 K (mol/(m3 Pa))
[5] = Henry solubility constant Hcp at 298.15 K (mol/(m3 Pa))
[6] = Henry solubility constant Hcp at 288 K (mol/(m3 Pa))
[7] = Henry solubility constant Hcp at 278 K (mol/(m3 Pa))
[8] = Henry solubility constant Hcp at 291 K (mol/(m3 Pa))
[9] = reference: de Wolf and Lieder (1998)
[10] = reference: Yurteri et al. (1987)
[11] = reference: Bissonette et al. (1990)
[12] = reference: Hartkopf and Karger (1973)
[13] = reference: Mackay et al. (1979)
[14] = reference: Ramachandran et al. (1996)
[15] = reference: Warner et al. (1980)

With `Cc1ccccc1` [methylbenzene] as the compound, how does the “Henry solubility constant Hcp at 296 K” value ([1]; reference: Anderson (1992)) read?
Its value is 0.0015.

And the “Henry solubility constant Hcp at 296 K” value ([1]; reference: David et al. (2000))?
The value was 0.0015.

And the “Henry solubility constant Hcp at 296 K” value ([1]; reference: Miller and Stuart (2000))?
The value was 0.0016.

And the “Henry solubility constant Hcp at 295 K” value [2, 9]?
Its value is 0.002.

What about the “Henry solubility constant Hcp at 310 K” value [3] of the same compound?
The value was 0.00085.

What about the “Henry solubility constant Hcp at 293 K” value ([4]; reference: Yu (1992)) of the same compound?
The value was 0.0037.

What about the “Henry solubility constant Hcp at 293 K” value [4, 10] of the same compound?
Its value is 0.0017.

And the “Henry solubility constant Hcp” value ([5]; reference: Allen et al. (1998))?
The value was 0.0015.

What about the “Henry solubility constant Hcp” value ([5]; reference: Bakierowska and Trzeszczyński (2003)) of the same compound?
Its value is 0.0017.

What about the “Henry solubility constant Hcp” value ([5]; reference: Bierwagen and Keller (2001)) of the same compound?
Its value is 0.0017.

And the “Henry solubility constant Hcp” value [5, 11]?
The value was 0.0014.

What about the “Henry solubility constant Hcp” value ([5]; reference: Bobadilla et al. (2003)) of the same compound?
Its value is 0.0021.

What about the “Henry solubility constant Hcp” value ([5]; reference: Brown and Wasik (1974)) of the same compound?
Its value is 0.0016.

And the “Henry solubility constant Hcp” value ([5]; reference: Ervin et al. (1980))?
The value was 0.0015.

And the “Henry solubility constant Hcp” value ([5]; reference: Ettre et al. (1993))?
The value was 0.0015.

And the “Henry solubility constant Hcp” value ([5]; reference: Garbarini and Lion (1985))?
Its value is 0.0015.

And the “Henry solubility constant Hcp” value ([5]; reference: Görgényi et al. (2002))?
The value was 0.0015.

What about the “Henry solubility constant Hcp” value [5, 12] of the same compound?
Its value is 0.002.

What about the “Henry solubility constant Hcp” value ([5]; reference: Keeley et al. (1988)) of the same compound?
Its value is 0.0016.

And the “Henry solubility constant Hcp” value ([5]; reference: Kish et al. (2013))?
Its value is 0.0015.

What about the “Henry solubility constant Hcp” value ([5]; reference: Kutsuna and Kaneyasu (2021)) of the same compound?
Its value is 0.0015.

What about the “Henry solubility constant Hcp” value ([5]; reference: Lau et al. (2010)) of the same compound?
Its value is 0.0013.

What about the “Henry solubility constant Hcp” value ([5]; reference: Lee et al. (2013)) of the same compound?
Its value is 0.0017.

What about the “Henry solubility constant Hcp” value ([5]; reference: Lei et al. (2004)) of the same compound?
Its value is 0.0014.

What about the “Henry solubility constant Hcp” value ([5]; reference: Li et al. (2008)) of the same compound?
Its value is 0.0015.

What about the “Henry solubility constant Hcp” value ([5]; reference: Lin and Chou (2006)) of the same compound?
The value was 0.0015.

And the “Henry solubility constant Hcp” value ([5]; reference: Lodge and Danso (2007))?
Its value is 0.0014.

What about the “Henry solubility constant Hcp” value [5, 13] of the same compound?
The value was 0.0015.

What about the “Henry solubility constant Hcp” value ([5]; reference: Nielsen et al. (1994)) of the same compound?
Its value is 0.0016.

What about the “Henry solubility constant Hcp” value ([5]; reference: Park et al. (1997)) of the same compound?
Its value is 0.0013.

What about the “Henry solubility constant Hcp” value ([5]; reference: Peng and Wan (1997)) of the same compound?
Its value is 0.0017.

And the “Henry solubility constant Hcp” value ([5]; reference: Peng and Wan (1998))?
Its value is 0.0021.

And the “Henry solubility constant Hcp” value ([5]; reference: Perlinger et al. (1993))?
The value was 0.0015.

And the “Henry solubility constant Hcp” value [5, 14]?
The value was 0.0015.

And the “Henry solubility constant Hcp” value ([5]; reference: Robbins et al. (1993))?
The value was 0.0015.

And the “Henry solubility constant Hcp” value ([5]; reference: Sanemasa et al. (1981))?
The value was 0.0016.

And the “Henry solubility constant Hcp” value ([5]; reference: Schoene and Steinhanses (1985))?
Its value is 0.0012.

What about the “Henry solubility constant Hcp” value ([5]; reference: Sieg et al. (2009)) of the same compound?
Its value is 0.0015.

And the “Henry solubility constant Hcp” value ([5]; reference: Tsibul’skii et al. (1979))?
The value was 0.0015.

And the “Henry solubility constant Hcp” value ([5]; reference: Turner et al. (1996))?
Its value is 0.0014.

And the “Henry solubility constant Hcp” value ([5]; reference: Vane and Giroux (2000))?
The value was 0.0019.

And the “Henry solubility constant Hcp” value ([5]; reference: Vitenberg et al. (1975))?
The value was 0.0019.

And the “Henry solubility constant Hcp” value [5, 15]?
Its value is 0.0017.

What about the “Henry solubility constant Hcp” value ([5]; reference: Wasik and Tsang (1970)) of the same compound?
Its value is 0.0017.

For `BrBr` [bromine (molecular)], which “Henry solubility constant Hcp at 288 K” value ([6]; reference: Jones (1911)) is on record?
The value was 0.014.

What about the “Henry solubility constant Hcp at 293 K” value ([4]; reference: Jenkins and King (1965)) of the same compound?
Its value is 0.0096.

What about the “Henry solubility constant Hcp” value ([5]; reference: Hill et al. (1968)) of the same compound?
Its value is 0.0068.

What about the “Henry solubility constant Hcp” value ([5]; reference: Kelley and Tartar (1956)) of the same compound?
Its value is 0.007.

What about the “Henry solubility constant Hcp” value ([5]; reference: Winkler (1899)) of the same compound?
The value was 0.0079.

And the “Henry solubility constant Hcp” value ([5]; reference: Winkler (1906))?
The value was 0.0078.

Which results are given for `[O]N=O` [nitrogen dioxide]?
Henry solubility constant Hcp at 295 K ([2]; reference: Lee and Schwartz (1981)): 6.9e-05; Henry solubility constant Hcp at 288 K ([6]; reference: Komiyama and Inoue (1980)): 0.00023; Henry solubility constant Hcp ([5]; reference: Cheung et al. (2000)): 0.00012

Which “Henry solubility constant Hcp at 278 K” value ([7]; reference: Sauer (1997)) does the source give for `CCOO` [ethyl hydroperoxide] here?
Its value is 11.

And the “Henry solubility constant Hcp” value ([5]; reference: O’Sullivan et al. (1996))?
The value was 3.3.

What does the source list for `[CH3][Hg][Cl]` [chloromethylmercury]?
Henry solubility constant Hcp at 295 K ([2]; reference: Talmi and Mesmer (1975)): 15; Henry solubility constant Hcp ([5]; reference: Iverfeldt and Lindqvist (1982)): 22

For `CC(C)O` [2-propanol], which “Henry solubility constant Hcp at 288 K” value ([6]; reference: Pividal et al. (1992)) is on record?
Its value is 1.4.

What about the “Henry solubility constant Hcp at 293 K” value ([4]; reference: Yu (1992)) of the same compound?
Its value is 0.98.

And the “Henry solubility constant Hcp” value ([5]; reference: Butler et al. (1935))?
The value was 1.2.

And the “Henry solubility constant Hcp” value ([5]; reference: Kim et al. (2000))?
The value was 1.1.

What about the “Henry solubility constant Hcp” value ([5]; reference: Lin and Chou (2006)) of the same compound?
The value was 1.3.

And the “Henry solubility constant Hcp” value ([5]; reference: Snider and Dawson (1985))?
The value was 1.2.

For `CCC(O)CO[N+](=O)[O-]` (stereo not drawn) [1-nitrooxy-2-butanol], which “Henry solubility constant Hcp at 291 K” value ([8]; reference: Treves et al. (2000)) is on record?
The value was 89.

Which results are given for `O=C(Cl)C(Cl)(Cl)Cl` [trichloroacetylchloride]?
Henry solubility constant Hcp at 278 K ([7]; reference: De Bruyn et al. (1995a)): 0.02; Henry solubility constant Hcp ([5]; reference: George et al. (1994a)): 0.02; Henry solubility constant Hcp ([5]; reference: Mirabel et al. (1996)): 0.02

For `O=[O+][O-]` [ozone], which “Henry solubility constant Hcp at 291 K” value ([8]; reference: Schöne (1873)) is on record?
The value was 0.00012.

And the “Henry solubility constant Hcp at 293 K” value ([4]; reference: Gurol and Singer (1982))?
The value was 0.00017.

What about the “Henry solubility constant Hcp at 293 K” value ([4]; reference: Levanov et al. (2008)) of the same compound?
The value was 0.00011.

And the “Henry solubility constant Hcp” value ([5]; reference: Andreozzi et al. (1996))?
Its value is 9.2e-05.

What about the “Henry solubility constant Hcp” value ([5]; reference: Briner and Perrottet (1939)) of the same compound?
The value was 0.00013.

What about the “Henry solubility constant Hcp” value ([5]; reference: Fischer and Tropsch (1917)) of the same compound?
The value was 0.0002.

And the “Henry solubility constant Hcp” value ([5]; reference: Gershenzon et al. (2001))?
The value was 0.00011.

What about the “Henry solubility constant Hcp” value ([5]; reference: Kilpatrick et al. (1956)) of the same compound?
The value was 9.9e-05.

What about the “Henry solubility constant Hcp” value ([5]; reference: Kosak-Channing and Helz (1983)) of the same compound?
Its value is 0.00011.

What about the “Henry solubility constant Hcp” value ([5]; reference: Luther (1905)) of the same compound?
Its value is 8e-05.

And the “Henry solubility constant Hcp” value ([5]; reference: Mailfert (1894))?
The value was 0.00012.

And the “Henry solubility constant Hcp” value ([5]; reference: Rischbieter et al. (2000))?
The value was 9.9e-05.

What about the “Henry solubility constant Hcp” value ([5]; reference: Sotelo et al. (1989)) of the same compound?
Its value is 0.00012.

What about the “Henry solubility constant Hcp” value ([5]; reference: Stumm (1958)) of the same compound?
Its value is 0.00012.

Which “Henry solubility constant Hcp at 295 K” value [2, 9] does the source give for `Brc1ccccc1` [bromobenzene] here?
Its value is 0.005.

What about the “Henry solubility constant Hcp” value ([5]; reference: Lau et al. (2010)) of the same compound?
Its value is 0.0039.

For `Clc1ccccc1` [chlorobenzene], which “Henry solubility constant Hcp at 295 K” value [2, 9] is on record?
The value was 0.0034.

And the “Henry solubility constant Hcp at 293 K” value [4, 10]?
The value was 0.0031.

And the “Henry solubility constant Hcp” value [5, 11]?
The value was 0.0024.

What about the “Henry solubility constant Hcp” value ([5]; reference: Cooling et al. (1992)) of the same compound?
Its value is 0.003.

And the “Henry solubility constant Hcp” value ([5]; reference: Ervin et al. (1980))?
The value was 0.0029.

What about the “Henry solubility constant Hcp” value ([5]; reference: Ettre et al. (1993)) of the same compound?
Its value is 0.0031.

What about the “Henry solubility constant Hcp” value [5, 12] of the same compound?
The value was 0.0028.

And the “Henry solubility constant Hcp” value ([5]; reference: Khalfaoui and Newsham (1994b))?
The value was 0.003.

And the “Henry solubility constant Hcp” value ([5]; reference: Lau et al. (2010))?
The value was 0.0017.

What about the “Henry solubility constant Hcp” value ([5]; reference: Lei et al. (2004)) of the same compound?
The value was 0.0015.

What about the “Henry solubility constant Hcp” value ([5]; reference: Li et al. (2008)) of the same compound?
Its value is 0.0024.

And the “Henry solubility constant Hcp” value [5, 13]?
Its value is 0.0026.

And the “Henry solubility constant Hcp” value ([5]; reference: Park et al. (1997))?
The value was 0.0019.

What about the “Henry solubility constant Hcp” value [5, 14] of the same compound?
The value was 0.0029.

What about the “Henry solubility constant Hcp” value [5, 15] of the same compound?
Its value is 0.0025.
